The values that follow come from patent publication US10822349B2, “Macrocyclic purines for the treatment of viral infections” (JANSSEN SCIENCES IRELAND UNLIMITED COMPANY, priority 2012, dated 2020).

Bounds are passed on as bounds.

Experiment [1] has as its system interferon production in human PBMC. Kind of experiment: Interferon production in human PBMC, read out on HEK-ISRE-luc reporter cells. The format is cell-based. The conditions noted are these: lowest effective concentration, PBMC supernatant after overnight incubation transferred to HEK-ISRE-luc cells; for minimal effective concentration: Homo sapiens, PBMC, 24 h, read-out: PBMC HEK-ISRE-luc (LEC; μM). As to the method: Activation of human TLR7 results in robust production of interferon by plasmacytoid dendritic cells present in human blood. The potential of compounds to induce interferon was evaluated by determination of interferon in the conditioned media from peripheral blood mononuclear cells (PBMC). The presence of interferon in the samples was determined, using an interferon reporter cell line stably expressing an interferon-stimulated responsive elements (ISRE)-luc reporter construct. The ISRE element with sequence GAAACTGAAACT (SEQ ID: 1) is highly responsive to the STAT1-STAT2-IRF9 transcription factor, which becomes activated upon binding of IFN-I to the IFN receptor. Briefly, PBMCs were prepared from buffy coats of at least two donors using a standard Ficoll centrifugation protocol. Isolated PBMCs were resuspended in RPMI medium supplemented with 10% human AB serum and 2×10^5 cells/well were dispensed into 384-well plates containing compounds (70 μL total volume). After overnight incubation of the PBMCs with the compounds, 10 μL of supernatant was transferred to 384-well plates containing 5×10^3 HEK-ISRE-luc cells/well in 30 μL (plated the day before). Following 24 hours of incubation, activation of the ISRE elements was measured by assaying luciferase activity using 40 μL/well Steady Lite Plus substrate (Perkin Elmer) and measured with ViewLux ultraHTS microplate imager (Perkin Elmer). The stimulating activity of each compound on the HEK-ISRE-luc cells was reported as LEC. The LEC in turn indicates the degree of ISRE activation on transfer of a defined amount of PBMC culture medium. Recombinant interferon alfa-2a (Roferon-A) was used as a standard control compound.

The target of a further experiment is T1, human TLR7 (Homo sapiens, UniProt Q9NYK1).
T1 construct: expressed in transfected cells; host or cells: HEK293
T1 sequence (Q9NYK1 27-1049): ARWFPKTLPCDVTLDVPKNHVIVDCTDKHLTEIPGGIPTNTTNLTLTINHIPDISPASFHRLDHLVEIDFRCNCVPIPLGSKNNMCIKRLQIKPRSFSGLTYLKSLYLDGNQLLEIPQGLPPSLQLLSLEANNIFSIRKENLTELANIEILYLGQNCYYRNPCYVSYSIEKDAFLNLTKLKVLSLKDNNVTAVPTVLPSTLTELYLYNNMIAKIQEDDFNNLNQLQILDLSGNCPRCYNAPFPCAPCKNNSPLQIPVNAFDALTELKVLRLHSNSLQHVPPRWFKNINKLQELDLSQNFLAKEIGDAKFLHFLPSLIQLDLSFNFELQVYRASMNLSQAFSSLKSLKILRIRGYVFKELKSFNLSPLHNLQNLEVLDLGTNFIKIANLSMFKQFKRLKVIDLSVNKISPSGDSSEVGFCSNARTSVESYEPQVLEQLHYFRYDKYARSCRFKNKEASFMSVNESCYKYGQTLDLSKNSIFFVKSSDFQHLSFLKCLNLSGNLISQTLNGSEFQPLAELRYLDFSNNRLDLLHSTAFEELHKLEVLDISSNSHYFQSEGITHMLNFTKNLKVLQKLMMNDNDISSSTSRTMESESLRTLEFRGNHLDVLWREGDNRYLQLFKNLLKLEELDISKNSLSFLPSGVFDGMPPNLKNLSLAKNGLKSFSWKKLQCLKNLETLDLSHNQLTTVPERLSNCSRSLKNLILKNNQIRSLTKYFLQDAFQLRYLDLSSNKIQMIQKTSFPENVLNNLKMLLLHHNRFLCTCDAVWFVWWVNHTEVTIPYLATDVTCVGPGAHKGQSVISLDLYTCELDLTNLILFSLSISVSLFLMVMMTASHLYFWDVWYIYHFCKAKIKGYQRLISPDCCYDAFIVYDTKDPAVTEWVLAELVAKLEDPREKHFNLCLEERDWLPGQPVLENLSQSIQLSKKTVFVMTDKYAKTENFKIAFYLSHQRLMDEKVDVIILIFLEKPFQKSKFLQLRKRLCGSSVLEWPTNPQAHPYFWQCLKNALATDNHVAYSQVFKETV
Kind of experiment: TLR7 cellular reporter assay (HEK293 TLR7-NFκB-luc). In kind it is cell-based. Conditions: lowest effective concentration; HEK293 transiently transfected with TLR7 and NFκB-luc; 6 hours incubation. As to the method: The ability of compounds to activate human TLR7 and TLR8 was assessed in a cellular reporter assay using HEK293 cells transiently transfected with a TLR7 or TLR8 expression vector and NFκB-luc reporter construct. Briefly, HEK293 cells were grown in culture medium (DMEM supplemented with 10% FCS and 2 mM Glutamine). For transfection of cells in 10 cm dishes, cells were detached with Trypsin-EDTA, transfected with a mix of CMV-TLR7 or TLR8 plasmid (750 ng), NFκB-luc plasmid (375 ng) and a transfection reagent and incubated 48 hours at 37° C. in a humidified 5% CO2 atmosphere. Transfected cells were then detached with Trypsin-EDTA, washed in PBS and resuspended in medium to a density of 1.67×10^5 cells/mL. Thirty microliters of cells were then dispensed into each well in 384-well plates, where 10 μL of compound in 4% DMSO was already present. Following 6 hours incubation at 37° C., 5% CO2, the luciferase activity was determined by adding 15 μl of Steady Lite Plus substrate (Perkin Elmer) to each well and readout performed on a ViewLux ultraHTS microplate imager (Perkin Elmer). Dose response curves were generated from measurements performed in quadruplicates. Lowest effective concentrations (LEC) values, defined as the concentration that induces an effect which is at least two fold above the standard deviation of the assay, were determined for each compound.

In the case of `Nc1nc2nc3c1nc(O)n3Cc1ccc(cc1)C/C=C/CCCCO2` [Compound 30], the minimal effective concentration in experiment [1] was determined as 0.56 µM. In addition, the “HEK293 TLR7-NFκB-luc (LEC; μM)” value at human TLR7 is 0.87 µM.
On to `Nc1nc2nc3c1nc(O)n3Cc1cccc(c1)CCCCCN2` [Compound 31], for which the minimal effective concentration in experiment [1] was 0.263 µM. For the same molecule, the “HEK293 TLR7-NFκB-luc (LEC; μM)” value at human TLR7 came out at 1.36 µM.
`Nc1nc2nc3c1nc(O)n3CCc1cccc(c1)OC/C=C/CO2` [Compound 32]: the minimal effective concentration in experiment [1] is 0.12 µM. Also, the “HEK293 TLR7-NFκB-luc (LEC; μM)” value at human TLR7 is 0.92 µM.
For `Nc1nc2nc3c1nc(O)n3Cc1cccc(c1)OC/C=C/CCCO2` [Compound 33] the same measures were 0.11 µM and 0.17 µM.
The like results for `Nc1nc2nc3c1nc(O)n3Cc1cccc(c1)C/C=C/CCCCO2` [Compound 34] were, in that order, 0.032 µM and 9.81 µM.
With `Nc1nc2nc3c1nc(O)n3Cc1cccc(=O)n1CCCCN2` [Compound 35], the minimal effective concentration in experiment [1] was found to be 0.41 µM. The “HEK293 TLR7-NFκB-luc (LEC; μM)” value at human TLR7 amounted to 1.68 µM.
On to `Nc1nc2nc3c1nc(O)n3Cc1ccc(cc1)C/C=C\CCCCO2` [Compound 36], for which the minimal effective concentration in experiment [1] worked out at 0.68 µM. On human TLR7, the “HEK293 TLR7-NFκB-luc (LEC; μM)” value was 12.45 µM.
Turning to `Nc1nc2nc3c1nc(O)n3Cc1cc(ccn1)OC/C=C\CCO2` [Compound 37], the minimal effective concentration in experiment [1] was 0.12 µM. For the same molecule, the “HEK293 TLR7-NFκB-luc (LEC; μM)” value at human TLR7 was determined as 0.8 µM.
For `Nc1nc2nc3c1nc(O)n3Cc1cccc(c1)OCCCCCO2` [Compound 38] the same measures were 0.027 µM and 0.53 µM.
Regarding `Nc1nc2nc3c1nc(O)n3Cc1ncccc1/C=C\CCCCO2` [Compound 42], the minimal effective concentration in experiment [1] amounted to 0.5 µM. In addition, the “HEK293 TLR7-NFκB-luc (LEC; μM)” value at human TLR7 is 2.28 µM.
For the molecule `Nc1nc2nc3c1nc(O)n3Cc1cccc(c1)OCCCCCCO2` [Compound 43], the minimal effective concentration in experiment [1] was 0.034 µM. Also, at human TLR7, the “HEK293 TLR7-NFκB-luc (LEC; μM)” value came to 0.11 µM.
Consider `Nc1nc2nc3c1nc(O)n3Cc1ncccc1OC/C=C/CCO2` [Compound 44], for which, in experiment [1], the minimal effective concentration came to 0.62 µM. Besides, the “HEK293 TLR7-NFκB-luc (LEC; μM)” value on human TLR7 worked out at 5.77 µM.
`Nc1nc2nc3c1nc(O)n3Cc1ncccc1OC/C=C\CCO2` [Compound 45]: the minimal effective concentration in experiment [1] worked out at 0.01 µM. Besides, the “HEK293 TLR7-NFκB-luc (LEC; μM)” value at human TLR7 was determined as 0.108 µM.
For `Nc1nc2nc3c1nc(O)n3Cc1cccc(n1)CC/C=C\CCO2` [Compound 46] the same measures were 1.13 µM and 6.49 µM.
As for `Nc1nc2nc3c1nc(O)n3Cc1ccccc1C/C=C\CCO2` [Compound 48], in experiment [1], the minimal effective concentration was 2.04 µM. Also, on human TLR7, the “HEK293 TLR7-NFκB-luc (LEC; μM)” value is 0.64 µM.
The like results for `Nc1nc2nc3c1nc(O)n3Cc1cccc(n1)OC/C=C/CCCO2` [Compound 49] were, in that order, 0.16 µM and 0.21 µM.
For `Nc1nc2nc3c1nc(O)n3Cc1ncccc1OCCCCCO2` [Compound 50] the same measures were 0.24 µM and 1.19 µM.
Consider `Nc1nc2nc3c1nc(O)n3Cc1cc(ccn1)OC/C=C/CCO2` [Compound 51], for which, in experiment [1], the minimal effective concentration worked out at 0.069 µM. In addition, the “HEK293 TLR7-NFκB-luc (LEC; μM)” value on human TLR7 is 0.74 µM.
The like results for `Nc1nc2nc3c1ncn3Cc1cccc(c1)C/C=C\CCO2` [Compound 52] were, in that order, 4.8 µM and 7.96 µM.
For `COc1cc2cc(c1)OCCCCOc1nc(N)c3nc(O)n(c3n1)C2` [Compound 53] the same measures were 0.01 µM and 0.029 µM.
In the case of `Nc1nc2nc3c1ncn3Cc1cccc(c1)OC/C=C\CO2` [Compound 55], in experiment [1], the minimal effective concentration was found to be 15.3 µM. Moreover, the “HEK293 TLR7-NFκB-luc (LEC; μM)” value on human TLR7 was more than 25 µM.
As for `COc1ccc2cc1OCCCCOc1nc(N)c3nc(O)n(c3n1)C2` [Compound 56], in experiment [1], the minimal effective concentration is 0.01 µM. Besides, the “HEK293 TLR7-NFκB-luc (LEC; μM)” value at human TLR7 turned out to be 0.056 µM.
Take `COc1ccc2cc1OC/C=C\COc1nc(N)c3nc(O)n(c3n1)C2` [Compound 57]: the minimal effective concentration in experiment [1] turned out to be 0.021 µM. Further, at human TLR7, the “HEK293 TLR7-NFκB-luc (LEC; μM)” value was found to be 0.08 µM.
The like results for `Nc1nc2nc3c1nc(O)n3Cc1cc(ccn1)OCCCCCO2` [Compound 58] were, in that order, 0.086 µM and 0.63 µM.
For the molecule `COc1c2cccc1OCCCCOc1nc(N)c3nc(O)n(c3n1)C2` [Compound 59], in experiment [1], the minimal effective concentration came out at 1.92 µM. The “HEK293 TLR7-NFκB-luc (LEC; μM)” value at human TLR7 worked out at 4.41 µM.
With `COc1ccc2cc1OC/C=C\COc1nc(N)c3nc(O)n(c3n1)C2` [Compound 60], in experiment [1] (24 hours), the “PBMC HEK-ISRE-luc (LEC; μM)” value came to 0.033 µM. The “HEK293 TLR7-NFκB-luc (LEC; μM)” value at human TLR7 worked out at 0.088 µM.
Take `COc1c2cccc1OC/C=C/COc1nc(N)c3nc(O)n(c3n1)C2` [Compound 61]: the minimal effective concentration in experiment [1] is 4.98 µM. Further, the “HEK293 TLR7-NFκB-luc (LEC; μM)” value at human TLR7 came to 4.7 µM.
The like results for `COc1c2cccc1OC/C=C\COc1nc(N)c3nc(O)n(c3n1)C2` [Compound 62] were, in that order, 2.03 µM and 7.26 µM.
For the molecule `COc1ccc2cc1Cn1c(O)nc3c(N)nc(nc31)OC/C=C/CO2` [Compound 63], the minimal effective concentration in experiment [1] stood at 0.031 µM. Also, the “HEK293 TLR7-NFκB-luc (LEC; μM)” value at human TLR7 was determined as 0.12 µM.
Turning to `Nc1nc2nc3c1nc(O)n3CCc1cccc(c1)OCCCCO2` [Compound 64], the minimal effective concentration in experiment [1] stood at 0.5 µM. Also, the “HEK293 TLR7-NFκB-luc (LEC; μM)” value on human TLR7 came to 1.49 µM.
For `COc1cc2cc(c1)OC/C=C\COc1nc(N)c3nc(O)n(c3n1)C2` [Compound 65] the same measures were 0.03 µM and 0.038 µM.
The like results for `COc1ccc2cc1CCCCCOc1nc(N)c3nc(O)n(c3n1)C2` [Compound 66] were, in that order, 0.018 µM and 0.032 µM.
For `COc1ccc2cc1C/C=C\CCOc1nc(N)c3nc(O)n(c3n1)C2` [Compound 67] the same measures were 0.0028 µM and 0.0024 µM.
On to `COc1ccc2cc1C/C=C/CCOc1nc(N)c3nc(O)n(c3n1)C2` [Compound 68], for which, in experiment [1], the minimal effective concentration was determined as 0.0057 µM. Also, on human TLR7, the “HEK293 TLR7-NFκB-luc (LEC; μM)” value was determined as 0.006 µM.
